Where two headings read alike, the source gives them in different places.
Columns and labels:
Assay in all cases: Kinase panel
Format in all cases: biochemical
PKCγ(h) = biological target: T1, PKCγ(h) (Homo sapiens, UniProt P05129)
T1 construct: purchased Millipore KinaseProfiler

Bmx(h) = biological target: T2, Bmx(h) (Homo sapiens, UniProt P51813)
T2 construct: purchased Millipore KinaseProfiler
T2 sequence (P51813 1-675): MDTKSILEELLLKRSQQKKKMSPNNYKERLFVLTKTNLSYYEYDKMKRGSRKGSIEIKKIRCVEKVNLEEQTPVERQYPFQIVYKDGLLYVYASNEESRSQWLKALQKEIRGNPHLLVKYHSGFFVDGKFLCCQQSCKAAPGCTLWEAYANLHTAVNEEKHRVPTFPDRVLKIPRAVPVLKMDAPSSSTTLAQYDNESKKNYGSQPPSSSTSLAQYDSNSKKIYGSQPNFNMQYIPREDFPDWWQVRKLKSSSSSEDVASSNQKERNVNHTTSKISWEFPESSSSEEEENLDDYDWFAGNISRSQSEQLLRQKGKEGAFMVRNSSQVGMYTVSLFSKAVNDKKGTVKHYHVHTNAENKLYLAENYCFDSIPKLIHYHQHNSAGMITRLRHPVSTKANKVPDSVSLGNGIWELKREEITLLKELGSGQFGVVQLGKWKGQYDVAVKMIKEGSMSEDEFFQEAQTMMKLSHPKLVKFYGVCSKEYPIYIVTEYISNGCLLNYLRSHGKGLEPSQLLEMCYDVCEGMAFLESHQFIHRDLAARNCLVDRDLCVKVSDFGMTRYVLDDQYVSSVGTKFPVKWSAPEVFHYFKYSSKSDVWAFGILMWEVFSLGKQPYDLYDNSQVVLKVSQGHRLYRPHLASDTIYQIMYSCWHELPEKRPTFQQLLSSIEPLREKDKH

Rsk3(h) = biological target: T3, Rsk3(h) (Homo sapiens, UniProt Q15349)
T3 construct: purchased Millipore KinaseProfiler
T3 sequence (Q15349 whole entry): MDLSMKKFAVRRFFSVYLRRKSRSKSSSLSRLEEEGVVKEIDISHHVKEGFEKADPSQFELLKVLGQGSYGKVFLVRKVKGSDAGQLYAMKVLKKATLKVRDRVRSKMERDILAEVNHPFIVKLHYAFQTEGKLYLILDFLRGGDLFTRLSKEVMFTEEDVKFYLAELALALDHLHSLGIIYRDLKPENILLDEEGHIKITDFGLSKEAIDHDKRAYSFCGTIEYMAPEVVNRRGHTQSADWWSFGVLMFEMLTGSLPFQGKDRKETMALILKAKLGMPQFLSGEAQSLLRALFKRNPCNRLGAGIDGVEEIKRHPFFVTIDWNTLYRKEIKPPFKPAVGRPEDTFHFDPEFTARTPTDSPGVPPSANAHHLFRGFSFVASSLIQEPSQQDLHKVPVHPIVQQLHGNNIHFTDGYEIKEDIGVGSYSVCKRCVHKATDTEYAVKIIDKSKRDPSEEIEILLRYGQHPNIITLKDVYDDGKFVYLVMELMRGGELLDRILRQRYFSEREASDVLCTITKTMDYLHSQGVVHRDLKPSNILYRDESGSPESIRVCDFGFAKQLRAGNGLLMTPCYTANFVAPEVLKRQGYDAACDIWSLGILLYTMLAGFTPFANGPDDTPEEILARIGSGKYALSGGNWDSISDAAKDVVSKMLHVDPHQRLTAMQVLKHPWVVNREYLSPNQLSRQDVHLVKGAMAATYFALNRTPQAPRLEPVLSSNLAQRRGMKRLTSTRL

CK2α2(h) = biological target: T4, CK2α2(h) (Homo sapiens, UniProt P19784)
T4 construct: purchased Millipore KinaseProfiler
T4 sequence (P19784 whole entry): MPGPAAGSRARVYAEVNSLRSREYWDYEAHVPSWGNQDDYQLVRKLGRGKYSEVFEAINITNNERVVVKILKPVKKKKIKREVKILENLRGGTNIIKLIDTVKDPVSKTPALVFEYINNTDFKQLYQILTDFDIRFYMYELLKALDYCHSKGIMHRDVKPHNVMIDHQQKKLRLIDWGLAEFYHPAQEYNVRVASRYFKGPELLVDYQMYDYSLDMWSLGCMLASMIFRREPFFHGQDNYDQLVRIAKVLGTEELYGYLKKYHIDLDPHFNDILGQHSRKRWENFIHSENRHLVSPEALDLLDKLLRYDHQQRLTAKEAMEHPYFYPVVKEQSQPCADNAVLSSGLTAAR

PKCι(h) = biological target: T5, PKCι(h) (Homo sapiens, UniProt P41743)
T5 construct: purchased Millipore KinaseProfiler
T5 sequence (P41743 1-596): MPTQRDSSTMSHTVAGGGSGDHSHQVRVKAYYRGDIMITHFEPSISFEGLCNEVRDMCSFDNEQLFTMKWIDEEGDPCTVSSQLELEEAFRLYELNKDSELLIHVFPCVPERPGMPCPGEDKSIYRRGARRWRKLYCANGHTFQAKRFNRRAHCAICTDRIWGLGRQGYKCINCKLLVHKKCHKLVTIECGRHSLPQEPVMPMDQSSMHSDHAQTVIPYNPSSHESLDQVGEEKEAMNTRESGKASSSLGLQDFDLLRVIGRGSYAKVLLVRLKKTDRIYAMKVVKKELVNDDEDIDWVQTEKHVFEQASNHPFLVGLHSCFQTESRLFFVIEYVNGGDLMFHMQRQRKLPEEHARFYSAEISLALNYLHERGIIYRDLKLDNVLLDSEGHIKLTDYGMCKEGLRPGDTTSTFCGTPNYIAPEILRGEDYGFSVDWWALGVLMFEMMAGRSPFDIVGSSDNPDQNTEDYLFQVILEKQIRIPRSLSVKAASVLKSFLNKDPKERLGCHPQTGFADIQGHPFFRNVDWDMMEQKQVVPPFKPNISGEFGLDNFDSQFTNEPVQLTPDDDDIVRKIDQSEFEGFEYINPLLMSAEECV

Tie2(h) = biological target: T6, Tie2(h) (Homo sapiens, UniProt Q02763)
T6 construct: purchased Millipore KinaseProfiler

Fes(h) = biological target: T7, Fes(h) (Homo sapiens, UniProt P07332)
T7 construct: purchased Millipore KinaseProfiler
T7 sequence (P07332 whole entry): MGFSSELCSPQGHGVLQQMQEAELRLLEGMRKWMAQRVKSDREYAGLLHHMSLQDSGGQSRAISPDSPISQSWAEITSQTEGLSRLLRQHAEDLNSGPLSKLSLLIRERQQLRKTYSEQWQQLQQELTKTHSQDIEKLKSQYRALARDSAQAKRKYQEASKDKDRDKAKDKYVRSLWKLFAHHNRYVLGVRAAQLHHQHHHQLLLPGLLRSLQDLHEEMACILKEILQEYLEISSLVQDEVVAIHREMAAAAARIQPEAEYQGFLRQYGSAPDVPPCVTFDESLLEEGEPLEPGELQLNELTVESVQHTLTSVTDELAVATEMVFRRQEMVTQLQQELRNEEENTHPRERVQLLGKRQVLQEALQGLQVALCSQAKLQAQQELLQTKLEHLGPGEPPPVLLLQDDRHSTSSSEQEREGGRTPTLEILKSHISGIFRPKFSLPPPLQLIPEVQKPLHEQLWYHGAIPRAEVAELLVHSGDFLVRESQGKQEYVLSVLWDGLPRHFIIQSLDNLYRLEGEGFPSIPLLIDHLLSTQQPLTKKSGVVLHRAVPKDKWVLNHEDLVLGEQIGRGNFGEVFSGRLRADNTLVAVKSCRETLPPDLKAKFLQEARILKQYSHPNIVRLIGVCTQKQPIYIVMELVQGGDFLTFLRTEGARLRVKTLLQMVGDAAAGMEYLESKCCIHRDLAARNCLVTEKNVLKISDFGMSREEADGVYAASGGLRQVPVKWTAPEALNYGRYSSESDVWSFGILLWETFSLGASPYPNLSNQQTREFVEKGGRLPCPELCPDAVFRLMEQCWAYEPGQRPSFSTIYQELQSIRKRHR

Abl(Y253F)(h) = biological target: T8, Abl(Y253F)(h) (Homo sapiens, UniProt P00519, Y253F)
T8 construct: purchased Millipore KinaseProfiler

Flt3(h) = biological target: T9, Flt3(h) (Homo sapiens, UniProt P36888)
T9 construct: purchased Millipore KinaseProfiler
T9 sequence (P36888 27-993): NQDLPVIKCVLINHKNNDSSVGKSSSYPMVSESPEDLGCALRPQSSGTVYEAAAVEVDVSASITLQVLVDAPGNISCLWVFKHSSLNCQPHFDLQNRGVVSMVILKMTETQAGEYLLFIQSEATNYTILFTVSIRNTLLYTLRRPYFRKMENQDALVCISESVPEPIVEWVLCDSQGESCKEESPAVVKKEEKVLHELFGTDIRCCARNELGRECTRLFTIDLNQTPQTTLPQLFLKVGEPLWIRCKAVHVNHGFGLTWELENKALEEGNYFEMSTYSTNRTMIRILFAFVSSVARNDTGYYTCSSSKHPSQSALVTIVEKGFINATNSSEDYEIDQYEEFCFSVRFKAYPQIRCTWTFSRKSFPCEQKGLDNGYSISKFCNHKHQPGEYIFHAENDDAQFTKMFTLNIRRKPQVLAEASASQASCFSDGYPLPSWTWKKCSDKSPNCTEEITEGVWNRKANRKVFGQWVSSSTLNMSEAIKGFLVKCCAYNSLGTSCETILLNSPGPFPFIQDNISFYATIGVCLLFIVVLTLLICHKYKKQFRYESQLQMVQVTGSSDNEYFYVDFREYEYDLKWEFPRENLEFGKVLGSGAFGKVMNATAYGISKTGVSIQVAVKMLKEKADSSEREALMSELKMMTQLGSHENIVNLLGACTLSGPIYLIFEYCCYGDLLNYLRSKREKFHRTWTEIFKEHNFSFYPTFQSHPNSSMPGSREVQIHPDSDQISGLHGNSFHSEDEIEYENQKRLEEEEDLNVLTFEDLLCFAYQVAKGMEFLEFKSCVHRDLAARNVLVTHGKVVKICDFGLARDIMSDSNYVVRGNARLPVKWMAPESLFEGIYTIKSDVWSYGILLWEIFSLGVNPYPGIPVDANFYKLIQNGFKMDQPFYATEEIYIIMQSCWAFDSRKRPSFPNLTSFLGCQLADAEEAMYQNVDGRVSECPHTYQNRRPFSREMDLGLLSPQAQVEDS

MSK2(h) = biological target: T10, MSK2(h) (Homo sapiens, UniProt O75676)
T10 construct: purchased Millipore KinaseProfiler
T10 sequence (O75676 whole entry): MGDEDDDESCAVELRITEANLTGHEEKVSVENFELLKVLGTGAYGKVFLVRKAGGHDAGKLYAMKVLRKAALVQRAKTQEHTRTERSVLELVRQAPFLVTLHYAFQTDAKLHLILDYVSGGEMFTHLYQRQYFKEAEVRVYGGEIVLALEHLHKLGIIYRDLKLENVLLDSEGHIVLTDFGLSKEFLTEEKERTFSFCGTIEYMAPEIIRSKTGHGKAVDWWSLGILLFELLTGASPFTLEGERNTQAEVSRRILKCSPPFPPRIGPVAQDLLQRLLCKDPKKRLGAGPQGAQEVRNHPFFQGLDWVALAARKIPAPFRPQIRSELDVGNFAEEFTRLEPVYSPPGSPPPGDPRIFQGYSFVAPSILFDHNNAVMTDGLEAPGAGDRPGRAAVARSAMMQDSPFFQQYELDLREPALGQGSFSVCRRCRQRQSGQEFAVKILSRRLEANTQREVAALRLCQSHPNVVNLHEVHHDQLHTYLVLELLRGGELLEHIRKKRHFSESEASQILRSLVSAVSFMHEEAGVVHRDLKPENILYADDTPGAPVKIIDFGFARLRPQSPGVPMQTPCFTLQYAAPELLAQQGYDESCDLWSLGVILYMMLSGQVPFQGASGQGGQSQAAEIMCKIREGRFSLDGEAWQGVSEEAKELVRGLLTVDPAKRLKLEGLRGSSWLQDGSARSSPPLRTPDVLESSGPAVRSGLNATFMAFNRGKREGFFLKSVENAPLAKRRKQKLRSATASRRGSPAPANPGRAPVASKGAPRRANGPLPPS

Arg(h) = biological target: T11, Arg(h) (Homo sapiens, UniProt P42684)
T11 construct: purchased Millipore KinaseProfiler
T11 sequence (P42684 whole entry): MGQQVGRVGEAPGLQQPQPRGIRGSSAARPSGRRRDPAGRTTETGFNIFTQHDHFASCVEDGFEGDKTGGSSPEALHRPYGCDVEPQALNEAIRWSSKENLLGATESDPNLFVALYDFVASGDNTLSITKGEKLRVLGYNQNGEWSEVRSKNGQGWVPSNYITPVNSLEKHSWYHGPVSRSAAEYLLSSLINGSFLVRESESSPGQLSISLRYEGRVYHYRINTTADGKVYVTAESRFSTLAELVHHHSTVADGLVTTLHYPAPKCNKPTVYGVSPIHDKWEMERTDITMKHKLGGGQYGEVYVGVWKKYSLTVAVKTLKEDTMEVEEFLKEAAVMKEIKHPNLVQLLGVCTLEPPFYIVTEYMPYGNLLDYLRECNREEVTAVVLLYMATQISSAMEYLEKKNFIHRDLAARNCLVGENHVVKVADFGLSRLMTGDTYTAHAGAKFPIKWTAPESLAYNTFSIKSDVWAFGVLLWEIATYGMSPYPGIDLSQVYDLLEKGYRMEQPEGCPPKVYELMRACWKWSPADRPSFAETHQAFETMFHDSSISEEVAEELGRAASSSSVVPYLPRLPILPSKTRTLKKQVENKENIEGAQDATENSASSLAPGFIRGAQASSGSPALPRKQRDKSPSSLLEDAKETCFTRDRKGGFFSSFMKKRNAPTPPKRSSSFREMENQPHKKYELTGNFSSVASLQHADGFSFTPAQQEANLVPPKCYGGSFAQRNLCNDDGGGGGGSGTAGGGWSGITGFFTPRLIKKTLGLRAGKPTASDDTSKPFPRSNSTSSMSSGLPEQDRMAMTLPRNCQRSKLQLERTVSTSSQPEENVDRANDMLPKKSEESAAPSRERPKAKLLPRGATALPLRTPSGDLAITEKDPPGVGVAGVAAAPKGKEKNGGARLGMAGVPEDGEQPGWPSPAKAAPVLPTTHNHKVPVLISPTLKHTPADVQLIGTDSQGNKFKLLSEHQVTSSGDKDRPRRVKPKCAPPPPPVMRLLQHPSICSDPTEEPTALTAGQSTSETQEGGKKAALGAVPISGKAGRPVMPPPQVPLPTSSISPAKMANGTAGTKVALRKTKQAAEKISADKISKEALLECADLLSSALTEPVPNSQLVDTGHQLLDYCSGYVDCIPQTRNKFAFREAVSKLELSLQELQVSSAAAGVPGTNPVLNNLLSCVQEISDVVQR

Cn1ncc(Cl)c1-c1cc(C(=O)N[C@H](CN)Cc2ccc(F)c(F)c2)oc1Cl [GSK2141795]
inhibition at 0.5 µM (PKCγ(h); 0.5 µM, read-out: % Inhibition): 63% | inhibition at 10 µM (PKCγ(h); 10 µM, read-out: % Inhibition): 95% | inhibition at 0.5 µM (Bmx(h); 0.5 µM, read-out: % Inhibition): -6% | inhibition at 10 µM (Bmx(h); 10 µM, read-out: % Inhibition): 21% | inhibition at 0.5 µM (Rsk3(h); 0.5 µM, read-out: % Inhibition): 51% | inhibition at 10 µM (Rsk3(h); 10 µM, read-out: % Inhibition): 94% | inhibition at 0.5 µM (CK2α2(h); 0.5 µM, read-out: % Inhibition): 1% | inhibition at 10 µM (CK2α2(h); 10 µM, read-out: % Inhibition): -5% | inhibition at 0.5 µM (PKCι(h); 0.5 µM, read-out: % Inhibition): 0% | inhibition at 10 µM (PKCι(h); 10 µM, read-out: % Inhibition): 43% | inhibition at 0.5 µM (Tie2(h); 0.5 µM, read-out: % Inhibition): -6% | inhibition at 10 µM (Tie2(h); 10 µM, read-out: % Inhibition): 9% | inhibition at 0.5 µM (Fes(h); 0.5 µM, read-out: % Inhibition): 0% | inhibition at 10 µM (Fes(h); 10 µM, read-out: % Inhibition): 80% | inhibition at 0.5 µM (Abl(Y253F)(h); 0.5 µM, read-out: % Inhibition): -18% | inhibition at 10 µM (Abl(Y253F)(h); 10 µM, read-out: % Inhibition): -11% | inhibition at 0.5 µM (Flt3(h); 0.5 µM, read-out: % Inhibition): -12% | inhibition at 10 µM (Flt3(h); 10 µM, read-out: % Inhibition): 22% | inhibition at 0.5 µM (MSK2(h); 0.5 µM, read-out: % Inhibition): 98% | inhibition at 10 µM (MSK2(h); 10 µM, read-out: % Inhibition): 102% | inhibition at 0.5 µM (Arg(h); 0.5 µM, read-out: % Inhibition): -13% | inhibition at 10 µM (Arg(h); 10 µM, read-out: % Inhibition): -17%

Cn1ncc(Cl)c1-c1cc(C(=O)N[C@H](CN)Cc2cccc(F)c2)sc1Cl [GSK2110183]
inhibition at 0.5 µM (PKCγ(h)): 39% | inhibition at 10 µM (PKCγ(h)): 90% | inhibition at 0.5 µM (Bmx(h)): -2% | inhibition at 10 µM (Bmx(h)): 18% | inhibition at 0.5 µM (Rsk3(h)): 35% | inhibition at 10 µM (Rsk3(h)): 89% | inhibition at 0.5 µM (CK2α2(h)): 2% | inhibition at 10 µM (CK2α2(h)): 4% | inhibition at 0.5 µM (PKCι(h)): 1% | inhibition at 10 µM (PKCι(h)): 50% | inhibition at 0.5 µM (Tie2(h)): -56% | inhibition at 10 µM (Tie2(h)): -10% | inhibition at 0.5 µM (Fes(h)): 9% | inhibition at 10 µM (Fes(h)): 48% | inhibition at 0.5 µM (Abl(Y253F)(h)): 2% | inhibition at 10 µM (Abl(Y253F)(h)): 9% | inhibition at 0.5 µM (Flt3(h)): -8% | inhibition at 10 µM (Flt3(h)): 24% | inhibition at 0.5 µM (MSK2(h)): 85% | inhibition at 10 µM (MSK2(h)): 97% | inhibition at 0.5 µM (Arg(h)): -3% | inhibition at 10 µM (Arg(h)): -1%
